Measured values as given in PMC11555526, “Development of 2-Aminoadenine-Based Proteolysis-Targeting Chimeras (PROTACs) as Novel Potent Degraders of Monopolar Spindle 1 and Aurora Kinases” (ACS Pharmacology & Translational Science, 2024).

Key:
[1] = Stability in buffer solutions (LC-ESI-MS); format: physicochemical; settings: for residual concentration (% of initial concentration): after 24 h
Experimental: Lastly, to gain a first insight into the stability of the synthesized compounds in a biological system, the stability of one of the degraders was examined at two different pH values and in human plasma (Figures S8 and S9). We chose one of the best degraders of the SF1 series, 20 as it also resembled the best degrader from azareversine series 19 in terms of the linker and E3-binding moiety. All experiments were carried out at 37 °C, and aliquots were analyzed using LC-ESI-MS at predetermined time points. […] We concluded from the stability profile of 20 that it is sufficient for further testing. […]
Stability in Buffer Solutions
The stability of the conjugate was examined by performing chemostability experiments at two different buffer solutions (pH = 5.2 and 7.4). Conjugate 20 was dissolved in 5 µL DMSO and transferred to 0.5 mL of the relevant buffer solution (acetate or phosphate aquatic buffer solutions). The mixture was then incubated at 37 °C, samples were collected at predetermined time points (0, 1, 2, 3, 4, 5, 24 and 48 h), and analyzed by LC-MS.
Results are presented as the mean ± of SD after repeating the experiment three times.
Figure S9: ESI-LCMS charts detected at 254 nm of conjugate 20 at pΗ5.2 and selected time intervals

[2] = biological target: T1, TTK (Homo sapiens, UniProt P33981); assay: Immunoblot of TTK in HiBiT-TTK cells; format: cell-based; design: endogenous in cells; host or cells: naive MV4-11; settings: 6 h, 10 µM
T1 sequence (P33981 1-857): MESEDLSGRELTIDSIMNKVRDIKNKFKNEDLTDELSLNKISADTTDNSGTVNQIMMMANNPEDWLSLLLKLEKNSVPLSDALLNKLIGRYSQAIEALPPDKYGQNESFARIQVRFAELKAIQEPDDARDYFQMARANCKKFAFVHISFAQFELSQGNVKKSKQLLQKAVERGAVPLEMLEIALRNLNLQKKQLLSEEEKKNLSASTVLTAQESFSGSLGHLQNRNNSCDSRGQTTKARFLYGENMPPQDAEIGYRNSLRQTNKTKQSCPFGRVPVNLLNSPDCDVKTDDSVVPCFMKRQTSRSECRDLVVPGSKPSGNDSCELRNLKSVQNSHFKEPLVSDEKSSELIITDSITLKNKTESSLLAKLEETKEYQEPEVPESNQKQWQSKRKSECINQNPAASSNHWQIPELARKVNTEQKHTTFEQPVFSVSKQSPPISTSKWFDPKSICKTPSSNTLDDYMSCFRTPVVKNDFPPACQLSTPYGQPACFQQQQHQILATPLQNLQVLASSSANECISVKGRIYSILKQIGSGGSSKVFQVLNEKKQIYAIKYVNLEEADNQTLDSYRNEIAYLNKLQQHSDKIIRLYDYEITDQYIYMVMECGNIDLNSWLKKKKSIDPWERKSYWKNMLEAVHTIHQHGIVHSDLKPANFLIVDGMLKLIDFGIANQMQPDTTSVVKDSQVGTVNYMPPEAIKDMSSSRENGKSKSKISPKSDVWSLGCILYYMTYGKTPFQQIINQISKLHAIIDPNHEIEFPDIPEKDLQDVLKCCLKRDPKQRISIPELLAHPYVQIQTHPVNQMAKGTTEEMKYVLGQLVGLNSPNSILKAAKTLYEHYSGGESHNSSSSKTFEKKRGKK
Experimental: The cells were treated with compounds or vehicle for indicated time points and lysed in RIPA lysis buffer (50 mM HEPES pH 7.9, 140 mM NaCl, 1 mM EDTA, 1% Triton X-100, 0.1% SDS, 0.1% sodium deoxycholate) containing protease and phosphatase inhibitors (Sigma) for 20 min at 4 °C. Cell lysates were cleared by centrifugation, and protein concentration was determined with bicinchoninic acid assay. Equal amounts of protein per sample were separated by Bis-Tris-PAGE and transferred to PVDF membranes (Millipore). The membranes were blocked with 5% (w/v) nonfat dry milk in TBS-T [20 mM Tris–HCl, pH 7.5, 150 mM NaCl, 0.1% (v/v) Tween-20] for 1 h at room temperature and incubated with primary antibody at 4 °C overnight. Visualization was carried out using horseradish peroxidase (HRP)-labeled secondary antibodies and detected using a chemiluminescent HRP substrate (Millipore) in LAS3000 or LAS4000 mini (Fujifilm). Vinculin, GAPDH, or B-actin were used as a loading control. The loading control was probed along with the target antibody by cutting the membrane. For targets with similar molecular weights, the samples were run in duplicate and probed with their respective loading controls, although only one control was shown in the figure for all targets. The signal was quantified using ImageJ or Image Studio Lite against the corresponding loading controls. […]

Row | residual concentration (% of initial concentration) ([1]; pH 5.2, 37 °C) | stability at both pH values ([1]; pH 5.2 and 7.4, 37 °C, for 8 h) | residual concentration (% of initial concentration) ([1]; pH 7.4, 37 °C) | relative TTK level (immunoblot quantification, vehicle = 1.00) [2] | SMILES
1 | 56% | stable | 11.2% |  | CC(C)S(=O)(=O)c1ccccc1Nc1nc(Nc2ccc(N3CCN(C(=O)CNC(=O)CCCC(=O)Nc4cccc5c4C(=O)N(C4CCC(=O)NC4=O)C5=O)CC3)cc2)nc2[nH]cnc12 (stereo not shown) [Compound 20]
2 |  |  |  | 0.48 | Cc1ncsc1-c1ccc(CNC(=O)[C@@H]2C[C@@H](O)CN2C(=O)[C@@H](NC(=O)COCCOCC(=O)N2CCN(c3ccc(Nc4nc(Nc5ccccc5S(=O)(=O)C(C)C)c5nc[nH]c5n4)cc3)CC2)C(C)(C)C)cc1 [Compound 49]
